Assay results as given in patent publication EP0315434A2, “Pyridoxal hydrazone derivatives their production and use and pharmaceutical compositions containing the same” (YISSUM RESEARCH DEVELOPMENT COMPANY OF THE HEBREW …, priority 1987, dated 1989).
Like-named read-outs stand apart in the source and are kept apart here.

Tests used:
[1] = Fate of ⁵⁹Fe tracer incubated with chelator and injected into normal rats (radioiron distribution and excretion); format: in vivo
Method: Table 1 describes the fate of ⁵⁹Fe tracer reincubated […] with 10 mg of some of the above iron chelators and then injected subcutaneously to groups of 4 normal rats. Numbers represent mean cumulative radioiron excretion within 4 days of injection. For comparison, spontaneous excretion of radioiron and the excretion of desferrioxamine (DF) bound radioiron are also given. […]
Spleen and kidney were counted as whole organs.
The excretion of radioiron following ⁵⁹Fe labelling was measured in animals confined to solitary metabolic cages with stainless steel grid bottoms, and stool and urine were collected separately.

[2] = tested on: chloroquine-resistant strain of P. falciparum (FCR-3)
Method: Cultures of a chloroquine-resistant strain of P. falciparum (FCR-3), cultivated in human erythrocytes (a technique widely used at the Kuvin Centre, Hebrew University Hadassah Medical School), were suspended in solutions containing chelators and then cultured for 3 days. Growth of parasites was determined by either slide counts or by incorporation of ³H-hypoxanthine. The parasite growth was monitored by microscopic slide counts. […]

[3] = biological target: T1, Ribonucleoside Diphosphate Reductase (RdR) (Homo sapiens, UniProt P31350); assay: Inhibition of ribonucleotide diphosphate reductase; format: biochemical
T1 sequence (P31350 1-389): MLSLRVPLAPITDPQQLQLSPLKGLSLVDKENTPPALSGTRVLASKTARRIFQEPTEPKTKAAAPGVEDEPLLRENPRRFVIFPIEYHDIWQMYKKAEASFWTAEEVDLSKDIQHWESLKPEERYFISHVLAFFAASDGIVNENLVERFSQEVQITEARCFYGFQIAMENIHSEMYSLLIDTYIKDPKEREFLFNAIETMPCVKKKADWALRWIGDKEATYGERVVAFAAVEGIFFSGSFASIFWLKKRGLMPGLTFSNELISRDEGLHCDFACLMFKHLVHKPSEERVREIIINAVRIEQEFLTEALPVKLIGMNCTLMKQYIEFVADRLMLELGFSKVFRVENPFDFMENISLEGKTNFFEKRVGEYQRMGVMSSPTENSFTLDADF

[4] = tested on: Lewis lung carcinoma; assay: Inhibition of Lewis lung carcinoma (primary tumor and metastases); format: in vivo
Source text: It becomes possible also to look at the ability of one of the compounds (Ex. 1) to inhibit the growth of Lewis lung carcinoma. With a view to possible mechanisms we employed the well-established anti-cancer antibiotics (a) bleomycin, and (b) daunorubicin, as reference compounds.

[5] = tested on: Leukemia P 388; assay: Leukemia P 388 survival in mice; format: in vivo, Mice: female B6D2F1; settings: days 1, 2, 3, 4
[6] = 10 mg chelator with ⁵⁹Fe, subcutaneous, normal rats, cumulative within 4 days
[7] = 10 mg chelator with ⁵⁹Fe, subcutaneous, normal rats, within 4 days

With `Cc1c(O)c(C=NNC(=O)c2cc[n+](C)cc2)c(CO)c[n+]1C.[I-].[I-]` [Comparative Compound B, 1-[N-methylpyridoxylidenium]-2-[N′-isonicotinoylium] hydrazine dimethiodide, reference compound] the “Radioiron Distribution in % Feces” value [1, 6] was 8.6±0.3%, the “Radioiron Distribution in % Total excretion” value [1, 6] was 39.2±1.6% and the “Radioiron Distribution in % Urine” value [1, 6] was 30.6±1.12%. The “Radioiron Distribution in % Blood” value [1, 7] was 25.1±2.2%, the “Radioiron Distribution in % Liver” value [1, 7] was 8.2±0.8% and the “Radioiron Distribution in % Spleen” value [1, 7] was 0.36±0.03%.
With `Cc1ncc(CO)c(C=NNc2ccccn2)c1O.O=S(=O)([O-])[O-].[Cu+2]` [Ex. 7] the “INHIBITION OF GROWTH OF DRUG-RESISTANT STRAIN OF P. falciparum % INHIBITION” value ([2]; molar concentration 1 x 10⁻¹², after 2 hours of exposure) was 100 ^(**) %.
For `Cc1ncc(CO)c(C=NNc2ccccn2)c1O` [Ex. 1], the “TOTAL EXCRETION OF RADIO-IRON IN RATS %” value ([1]; as in Table 1) was 34.2%, the “INHIBITION OF GROWTH OF DRUG-RESISTANT STRAIN OF P. falciparum % INHIBITION” value ([2]; molar concentration 2 x 10⁻⁶, cultured 3 days) was 93.4% and the “Inhibition of Ribonucleoside Diphosphate Reductase (RdR) %” value ([3]; dose 6.7 x 10⁻⁵ M (20 µg/ml)) was 72%. The “Inhibition of Lewis Carcinoma Metastases %” value ([4]; dose 25 mg/kg) was 41%, the “Inhibition of Lewis Carcinoma Primary Tumor %” value ([4]; dose 25 mg/kg) was 0% and the “Activity T/C x 100” value ([5]; 25 mg/kg i.p.) was 105. The “Bodyweights Day 7-Day (g)” value ([5]; 25 mg/kg i.p.) was “+2.6 g”, the “Survivors on Day 20” value ([5]; 25 mg/kg i.p.) was 0/5 and the “Activity T/C x 100” value ([5]; 37.5 mg/kg i.p.) was 110. The “Bodyweights Day 7-Day (g)” value ([5]; 37.5 mg/kg i.p.) was “+0.2 g”, the “Survivors on Day 20” value ([5]; 37.5 mg/kg i.p.) was 0/5 and the “Bodyweights Day 7-Day (g)” value ([5]; 50 mg/kg i.p.) was “+0.8 g”. For the same compound, the “Survivors on Day 20” value ([5]; 50 mg/kg i.p.) was 0/5, the “Activity T/C x 100” value ([5]; 50 mg/kg i.p., P<0.05 (Mann-Whitney Test)) was 126(xxx) and the “Activity T/C x 100” value ([5]; 75 mg/kg i.p.) was “Toxic^(xx)”. For the same compound, the “Bodyweights Day 7-Day” value ([5]; 75 mg/kg i.p.) was -0.6 g and the “Survivors on Day 20” value ([5]; 75 mg/kg i.p.) was 0/5.
For `COc1cccc2c1C(=O)c1c(O)c3c(c(O)c1C2=O)C[C@@](O)(C(C)=O)C[C@@H]3O[C@H]1C[C@H](N)[C@H](O)[C@H](C)O1` [Daunorubicin, daunorubicin, reference compound], the “Survivors on Day 20” value ([5]; 1 mg/kg i.p.) was 0/10 and the “Activity T/C x 100” value ([5]; 1 mg/kg i.p., mean survival time treated / controls) was 154.
In the case of bleomycin [reference compound], the “Inhibition of Lewis Carcinoma Metastases %” value ([4]; dose 1.25 mg/kg) is reported as 48% and the “Inhibition of Lewis Carcinoma Primary Tumor %” value ([4]; dose 1.25 mg/kg) is reported as 24%.
With `NC(=O)NO` [Hydroxyurea, reference compound] the “Inhibition of Ribonucleoside Diphosphate Reductase (RdR) %” value ([3]; dose 1 x 10⁻⁵ M) was 15%, the “Inhibition of Ribonucleoside Diphosphate Reductase (RdR) %” value ([3]; dose 10 x 10⁻⁵ M) was 37% and the “Inhibition of Ribonucleoside Diphosphate Reductase (RdR) %” value ([3]; dose 100 x 10⁻⁵ M) was 73%.
